From US11345700B2, “Methods of preparing inhibitors of influenza viruses replication” (priority 2013, dated 2022)
Where two headings read alike, the source gives them in different places. Marks after values point to notes of the source that are not given here.

Assays:
influenza A/PR/8/34 = assay: In vivo combination of Compound (1) with zanamivir, influenza A challenge in mice
Source text: Efficiency quotient, a composite measure of survival, bodyweight loss and lung function (% survival/(% body weight loss at Day 8)*(Penh at Day 6)) is summarized in Table 19B.

influenza A strains = assay: microbe, parasite or virus in culture; type: cell-based
influenza A = assay: Mouse model of influenza A: lung viral titers; type: in vivo, mice; conditions: for Log10 Reduction vs. Vehicle: study day 6; for Lung Viral Titer: titers on study day 6
[1] = test system: influenza A/Wisconsin/67/2005 (H3N2) challenge strain virus; assay: Human live attenuated influenza challenge: nasal viral shedding by TCID50 cell culture assay; type: in vivo, healthy volunteers (humans)
Method: Subjects underwent thrice daily nasal swabs, and kept thrice daily score cards for clinical symptoms from Days 1-7, and were discharged from the facility on Day 8, with safety follow-up at approximately Day 28. Nasal swabs were assayed for influenza virus in cell culture (primary analysis) and by qRT-PCR (secondary analysis).
Additional FA group analyses were performed (data not shown).

[2] = test system: influenza A/Wisconsin/67/2005 (H3N2) challenge strain virus; assay: Human influenza challenge: rates of seroconversion; type: in vivo, healthy volunteers (humans); conditions: for Serology Sero-conversion, n/N: ≥4-fold increase in anti-influenza antibody titer at Follow-up Visit vs baseline
[3] = Human influenza challenge: safety assessment, adverse events; type: in vivo, healthy volunteers (humans)
Source text: A list of adverse events occurring in ≥10% of subjects in any treatment group is presented (Table 29). Influenza-like illness was the most frequently reported adverse event, and was reported by an approximately equal proportion of subjects in the placebo and Compound (1) groups.

[4] = Zanamivir 0.3 mg/kg IN x 1 (24 h prior) + Compound (1) 0.3 mg/kg BID (from 2 h prior)
[5] = Zanamivir 0.3 mg/kg IN x 1 (24 h prior) + Compound (1) 1 mg/kg BID (from 2 h prior)
[6] = Zanamivir 1 mg/kg IN x 1 (24 h prior) + Compound (1) 0.1 mg/kg BID (from 2 h prior)
[7] = Zanamivir 1 mg/kg IN x 1 (24 h prior) + Compound (1) 0.3 mg/kg BID (from 2 h prior)
[8] = Zanamivir 1 mg/kg IN x 1 (24 h prior) + Compound (1) 1 mg/kg BID (from 2 h prior)
[9] = Zanamivir 3 mg/kg IN x 1 (24 h prior) + Compound (1) 0.1 mg/kg BID (from 2 h prior)
[10] = Zanamivir 3 mg/kg IN x 1 (24 h prior) + Compound (1) 0.3 mg/kg BID (from 2 h prior)
[11] = Zanamivir 3 mg/kg IN x 1 (24 h prior) + Compound (1) 1 mg/kg BID (from 2 h prior)
[12] = Study 1, 30 mg/kg BID from 24 h post infection for 5 days
[13] = Study 2, 3 mg/kg BID from 24 h post infection for 5 days
[14] = Study 2, 10 mg/kg BID from 24 h post infection for 5 days
[15] = Study 2, 30 mg/kg BID from 24 h post infection for 5 days
[16] = Pooled Compound (1) dose groups (N = 52)
[17] = Pooled Compound (1) dose groups

SMILES: O=C(O)[C@H]1[C@H]2CC[C@H](CC2)[C@@H]1Nc1nc(-c2c[nH]c3ncc(F)cc23)ncc1F [Compound (1)]
- Survival Rate (influenza A/PR/8/34; Compound (1) 0.1 mg/kg BID 10 days, 1st dose 2 h prior to infection, Zanamivir 0): 12.5
- Survival Rate (influenza A/PR/8/34; Compound (1) 0.3 mg/kg BID 10 days, 1st dose 2 h prior to infection, Zanamivir 0): 44.4
- Efficiency Quotient (% survival/(% body weight loss at Day 8)*(Penh at Day 6)) (influenza A/PR/8/34; Compound (1) 0.3 mg/kg BID, 1st dose 2 h prior to infection, Zanamivir 0): 0.59
- Survival Rate (influenza A/PR/8/34; Compound (1) 1 mg/kg BID 10 days, 1st dose 2 h prior to infection, Zanamivir 0): 100
- Efficiency Quotient (% survival/(% body weight loss at Day 8)*(Penh at Day 6)) (influenza A/PR/8/34; Compound (1) 1 mg/kg BID, 1st dose 2 h prior to infection, Zanamivir 0): 2.32
- Survival Rate (influenza A/PR/8/34; Zanamivir 0.3 mg/kg IN x 1 (24 h prior) + Compound (1) 0.1 mg/kg BID (from 2 h prior)): 0
- Efficiency Quotient (% survival/(% body weight loss at Day 8)*(Penh at Day 6)) (influenza A/PR/8/34; [4]): 1.35
- Survival Rate (influenza A/PR/8/34; [4]): 100
- Efficiency Quotient (% survival/(% body weight loss at Day 8)*(Penh at Day 6)) (influenza A/PR/8/34; [5]): 2.97
- Survival Rate (influenza A/PR/8/34; [5]): 100
- Efficiency Quotient (% survival/(% body weight loss at Day 8)*(Penh at Day 6)) (influenza A/PR/8/34; [6]): 1.00
- Survival Rate (influenza A/PR/8/34; [6]): 75
- Efficiency Quotient (% survival/(% body weight loss at Day 8)*(Penh at Day 6)) (influenza A/PR/8/34; [7]): 1.61
- Survival Rate (influenza A/PR/8/34; [7]): 100
- Efficiency Quotient (% survival/(% body weight loss at Day 8)*(Penh at Day 6)) (influenza A/PR/8/34; [8]): 2.31
- Survival Rate (influenza A/PR/8/34; [8]): 100
- Efficiency Quotient (% survival/(% body weight loss at Day 8)*(Penh at Day 6)) (influenza A/PR/8/34; [9]): 1.30
- Survival Rate (influenza A/PR/8/34; [9]): 100
- Efficiency Quotient (% survival/(% body weight loss at Day 8)*(Penh at Day 6)) (influenza A/PR/8/34; [10]): 1.48
- Survival Rate (influenza A/PR/8/34; [10]): 100
- Efficiency Quotient (% survival/(% body weight loss at Day 8)*(Penh at Day 6)) (influenza A/PR/8/34; [11]): 4.28
- Survival Rate (influenza A/PR/8/34; [11]): 100
- EC50 (influenza A strains; ATCC 2 / H1N1, MDCK, read-out: Cell Protection Assay EC50 ± SD): 1900 ± 3000 pM
- EC50 (influenza A strains; ATCC 3 / H1N1, MDCK, read-out: Cell Protection Assay EC50 ± SD): 1900 ± 3200 pM
- EC50 (influenza A strains; H1N1, MDCK, in Sus scrofa, read-out: Cell Protection Assay EC50 ± SD, A/Swine/1976/31, H1N1): 470 ± 110 pM
- EC50 (influenza A strains; H1N1, MDCK, in Sus scrofa, read-out: Cell Protection Assay EC50 ± SD, A/Swine/Iowa/15/30, H1N1): 650 ± 82 pM
- EC50 (influenza A strains; H1N1, MDCK, read-out: Cell Protection Assay EC50 ± SD, A/New Jersey/8/76, H1N1): 200 ± 96 pM
- EC50 (influenza A strains; H3N8, MDCK, in Equus caballus, read-out: Cell Protection Assay EC50 ± SD, A/Equine/2/Miami/63, H3N8): 500 ± 65 pM
- Log10 Reduction vs. Vehicle (influenza A; [12]): −2.25***
- Lung Viral Titer (influenza A; [12]): 3.95 Log10 TCID50
- Log10 Reduction vs. Vehicle (influenza A; [13]): −1.04
- Lung Viral Titer (influenza A; [13]): 5.24*** Log10 TCID50
- Log10 Reduction vs. Vehicle (influenza A; [14]): −1.08
- Lung Viral Titer (influenza A; [14]): 5.20*** Log10 TCID50
- Log10 Reduction vs. Vehicle (influenza A; [15]): −1.75
- Lung Viral Titer (influenza A; [15]): 4.53*** Log10 TCID50
- Viral Shedding by Tissue Culture AUC, median ([1]; 100 mg QD (N = 12)): 1.25 log10 TCID50 mL*Day
- Viral Shedding by Tissue Culture Duration, median ([1]; 100 mg QD (N = 12)): 0.96 days
- Viral Shedding by Tissue Culture Peak, mean ([1]; 100 mg QD (N = 12)): 2.09 log10 TCID50/mL
- Viral Shedding by Tissue Culture AUC, median ([1]; 400 mg QD (N = 12)): 0.70 log10 TCID50 mL*Day
- Viral Shedding by Tissue Culture Duration, median ([1]; 400 mg QD (N = 12)): 1.60 days
- Viral Shedding by Tissue Culture Peak, mean ([1]; 400 mg QD (N = 12)): 1.73 log10 TCID50/mL
- Viral Shedding by Tissue Culture AUC, median ([1]; 900/600 mg (N = 14)): 3.20 log10 TCID50 mL*Day
- Viral Shedding by Tissue Culture Duration, median ([1]; 900/600 mg (N = 14)): 2.71 days
- Viral Shedding by Tissue Culture Peak, mean ([1]; 900/600 mg (N = 14)): 2.68 log10 TCID50/mL
- Viral Shedding by Tissue Culture AUC, median ([1]; 1200/600 mg (N = 14)): 0.35 log10 TCID50 mL*Day
- Viral Shedding by Tissue Culture Duration, median ([1]; 1200/600 mg (N = 14)): 0.00 days
- Viral Shedding by Tissue Culture Peak, mean ([1]; 1200/600 mg (N = 14)): 1.00 log10 TCID50/mL
- Viral Shedding by Tissue Culture AUC, median [1, 16]: 0.65 log10 TCID50 mL*Day
- Viral Shedding by Tissue Culture Duration, median [1, 16]: 0.71 days
- Viral Shedding by Tissue Culture Peak, mean [1, 16]: 1.87 log10 TCID50/mL
- Serology Sero-conversion (%) ([2]; 100 mg QD): (69%)
- Serology Sero-conversion, n/N ([2]; 100 mg QD): 11/16
- Serology Sero-conversion (%) ([2]; 400 mg QD): (47%)
- Serology Sero-conversion, n/N ([2]; 400 mg QD): 9/19
- Serology Sero-conversion (%) ([2]; 900/600 mg): (68%)
- Serology Sero-conversion, n/N ([2]; 900/600 mg): 13/19
- Serology Sero-conversion (%) ([2]; 1200/600 mg): (67%)
- Serology Sero-conversion, n/N ([2]; 1200/600 mg): 12/18
- Serology Sero-conversion (%) [2, 17]: (63%)
- Serology Sero-conversion, n/N [2, 17]: 45/72
- tolerability ([3]; 100 mg to 1200/600 mg QD for 5 days, healthy volunteers): well tolerated
- Adverse event: Alanine aminotransferase increased ([3]; 100 mg, N = 16): 3 (18.8) n(%)
- Adverse event: Aspartate aminotransferase increased ([3]; 100 mg, N = 16): 1 (6.3) n(%)
- Adverse event: Blood phosphorus decreased ([3]; 100 mg, N = 16): 3 (18.8) n(%)
- Adverse event: Dermatitis contact ([3]; 100 mg, N = 16): 3 (18.8) n(%)
